Values after ≈ are worked out from the molar mass of the structure shown.

The conditions of the series: buffer; pH 7.4; 200.0 µM.
For orientation: kinetic solubility means the concentration staying in solution when a stock, usually in DMSO, is diluted into the medium. As to `CC(NC(=O)CCN1C(=O)c2ccccc2C1=O)c1ccccc1` (stereo not drawn), the solubility (kinetic) was more than 48.4 µg/mL.
The same measure for `COc1cc(NC(=O)c2ccccc2Cl)c2ncccc2c1`: less than 0.3 µg/mL; for `Cc1cccc(N2CCN(C(=O)N3CCCCC3)CC2)c1C`: 26.3 µg/mL (≈ 87.2 µM); for `Cc1cc(C)c(C(=O)CSc2nc(C)cc(=O)[nH]2)c(C)c1`: 14 µg/mL (≈ 46.3 µM).
Take `CC(NC(=O)COC(=O)C1CCCCC1)c1ccccc1` (stereo not drawn): the kinetic solubility is more than 43.4 µg/mL.
Regarding `Cn1cnnc1SCC(=O)Nc1ncc([N+](=O)[O-])s1`, the solubility (kinetic) was more than 45 µg/mL.
The same measure for `CC1(C)CC(=O)C=C(Nc2ccccc2C#N)C1.Cl`: 38.2 µg/mL; for `O=C(O)Cc1sc(NC2CCCCC2)nc1-c1ccc(Cl)cc1`: more than 52.6 µg/mL; for `Cc1cccc2cc(COC(=O)c3cccc([N+](=O)[O-])c3)c(=O)[nH]c12`: 1.5 µg/mL (≈ 4.43 µM).
The same measure for `Cc1ccc(NC(=S)N(C)C)cc1C`: 29.4 µg/mL (≈ 141 µM); for `O=C1Nc2ccccc2C1c1ncc(C(F)(F)F)cc1Cl` (stereo not drawn): more than 46.9 µg/mL; for `CC1(C)SC(=S)N(c2ccccc2)C1/[N+]([O-])=C/c1cccc([N+](=O)[O-])c1` (stereo not drawn): 6.2 µg/mL (≈ 16 µM).
Compound `Cc1onc(-c2ccccc2)c1NC(=O)Nc1ccc(OC(F)F)cc1` registered a solubility (kinetic) of 7 µg/mL (≈ 19.5 µM).
On to `Cc1ccc(NS(=O)(=O)c2ccc3c(c2)n(C)c(=O)n3C)cc1C`, for which the solubility (kinetic) is 1.2 µg/mL (≈ 3.47 µM).
Next, `O=C(Nc1ccccc1F)NC1CCCc2ccccc21` (stereo not drawn): 2 µg/mL (≈ 7.03 µM); `OC(CNc1ncnc2sccc12)c1ccccc1` (stereo not drawn): more than 40.7 µg/mL.
The same measure for `Cc1nc(NC(=O)c2ccco2)sc1C(=O)O`: more than 37.8 µg/mL; for `Cc1ccc(N2C(=S)NC3c4ccccc4OC2(C)C3C(=O)N(C)C)cc1` (stereo not drawn): 50.9 µg/mL (≈ 133 µM); for `O=C(c1ccncc1)N1CCc2ccccc2C1`: more than 35.7 µg/mL.
On to `COc1cc(C(=S)N2CCOCC2)cc(OC)c1O`, for which the solubility (kinetic) was more than 42.5 µg/mL.
On to `CCOc1ccc(S(=O)(=O)/N=C(/Nc2ccc(C(C)=O)cc2)c2ccccc2)cc1`, for which the kinetic solubility amounted to 18.1 µg/mL (≈ 42.8 µM).
`C=CCCOc1ccccc1C(N)=O` yielded a kinetic solubility of 25.8 µg/mL (≈ 135 µM). The solubility kinetic values of the last two compounds are within 1.5-fold of each other.
`Nc1c(C(=O)N2CCCC2)sc2nc3c(cc12)CCCCCC3` registered a kinetic solubility of 3.2 µg/mL (≈ 9.71 µM).
For the compound `N#Cc1cccc(NC(=O)CSc2n[nH]c(=O)[nH]c2=O)c1`, the kinetic solubility is more than 45.5 µg/mL.
Take `CN(C)/C=C/c1[nH]c(=O)[nH]c(=O)c1[N+](=O)[O-]`: the kinetic solubility was more than 33.9 µg/mL.
`COC(=O)c1c(C)[nH]c(C(=O)CN2C(=O)C3CC=CCC3C2=O)c1C` (stereo not drawn) had a kinetic solubility of more than 51.7 µg/mL.
Compound `COc1cc(OC)cc(C(=O)NCCSCc2ccc(Cl)cc2)c1` registered a kinetic solubility of 5.2 µg/mL (≈ 14.2 µM).
In the case of `Fc1ccccc1CSCc1nc2ccccc2[nH]1`, the solubility (kinetic) was 36.6 µg/mL (≈ 134 µM).
In turn, `CC1(C)C(=O)OC(/C=C/c2cccc([N+](=O)[O-])c2)C(C)(C)C1=O` (stereo not drawn) had a solubility (kinetic) of 2.7 µg/mL (≈ 8.51 µM).
On to `O=S(=O)(Nc1ncnc2sccc12)c1cccc(F)c1`, for which the solubility (kinetic) is more than 46.4 µg/mL.
Compound `Cc1ccc(NC(=O)C2COc3ccccc3O2)cc1` (stereo not drawn) yielded a solubility (kinetic) of 13.3 µg/mL (≈ 49.4 µM).
The same measure for `CC1CN(CCCCSc2ccccc2)CC(C)O1.Cl` (stereo not drawn): 41.8 µg/mL; for `O=C(Cc1c(F)cccc1Cl)Nc1ncc([N+](=O)[O-])s1`: 16.7 µg/mL (≈ 52.9 µM).
The compound `S=C1NCN(Cc2ccco2)CN1CCc1ccccc1` showed a solubility (kinetic) of 9.6 µg/mL (≈ 31.8 µM).
The same measure for `Cc1cc(C=NCCO)c(C)n1-c1cc(Cl)ccc1Cl`: 29.2 µg/mL (≈ 93.8 µM); for `CC(=O)Nc1ccc(NC(=O)C(C)OC(=O)CC23CC4CC(CC(Br)(C4)C2)C3)cc1` (stereo not drawn): more than 71.6 µg/mL; for `CC1CN(C(=O)Nc2ccc(F)cc2F)CC(C)O1` (stereo not drawn): more than 40.5 µg/mL.
`Cc1ccc2nc(N3CC(C)OC(C)C3)nc(-c3ccccc3)c2c1` (stereo not drawn) yielded a solubility (kinetic) of 2.2 µg/mL (≈ 6.6 µM).
Consider `CCNc1ccc(S(=O)(=O)N(C)C)cc1[N+](=O)[O-]`, for which the kinetic solubility was 23.1 µg/mL (≈ 84.5 µM).
As for `O=C1N(Cc2cccc(Cl)c2)C[C@@H]2C[C@@H](c3ccccn3)N3CCC[C@@]123`, the solubility (kinetic) is 39 µg/mL (≈ 106 µM). This solubility kinetic is about 1.7-fold higher than that of the compound before.
The compound `O=C(c1cccnc1Cl)N(Cc1ccccc1)Cc1ccccc1` yielded a solubility (kinetic) of 39.5 µg/mL (≈ 117 µM). The solubility kinetic values of the last two compounds are within 1.5-fold of each other.
The compound `O=C(N/C(=C/c1ccco1)C(=O)N1CCOCC1)c1cccs1` registered a kinetic solubility of more than 49.9 µg/mL.
The compound `Cc1c(N=Cc2cc3c(cc2[N+](=O)[O-])OCO3)cccc1[N+](=O)[O-]` displayed a solubility (kinetic) of 6.5 µg/mL (≈ 19.7 µM).
Take `Cc1oc(-c2ccc(Cl)cc2)cc1C(=O)/C(C#N)=C/Nc1ccccc1`: the solubility (kinetic) worked out at 1.4 µg/mL (≈ 3.86 µM).
In the case of `CC(=O)Nc1ccccc1C(=O)N1CCN(c2cccc(C)c2C)CC1`, the kinetic solubility is more than 52.7 µg/mL.
As to `COc1ccccc1CC(=O)Nc1ncc(C)s1`, the solubility (kinetic) was found to be 8.4 µg/mL (≈ 32 µM).
In turn, `CC(C)NC(=O)/C=C/C(=O)O` came in with a kinetic solubility of 22.3 µg/mL (≈ 142 µM). Compared with the last compound, the solubility kinetic is about 2.7-fold higher.
Next, `COc1ncnc(-c2ccccc2)c1-c1ccccc1`: 14.9 µg/mL (≈ 56.8 µM); `CCN1CCc2c(OCC(=O)N3CCC(C)CC3)cccc2C1=O`: 46.2 µg/mL (≈ 140 µM).
Next, `COc1ccccc1CNC(=O)COc1ccccc1C`: 38.4 µg/mL (≈ 135 µM); `CC(=O)N1CCN(C(=O)CNC(=O)c2cccs2)CC1`: more than 44.3 µg/mL; `COc1ccc(S(=O)(=O)NC2CCCC2)c(OC)c1`: more than 42.8 µg/mL.
Next, `O=C(NC1CCN(c2ncccn2)CC1)c1c(F)cccc1F`: more than 47.7 µg/mL.
Regarding `O=C(CN1C(=O)NC2(CCCCCC2)C1=O)c1cccs1`, the solubility (kinetic) was more than 46 µg/mL.
The same measure for `COC(=O)c1cccn(CC(=O)c2ccc(Cl)cc2)c1=O`: more than 45.9 µg/mL.
The same measure for `CCN(CC(=O)NCc1ccco1)S(=O)(=O)c1ccc(F)cc1`: more than 51.1 µg/mL; for `CSc1cccc(NC(=O)c2cccc3cccnc23)c1`: 5.7 µg/mL (≈ 19.4 µM).
`CN(C)/C=C1\C(=O)Oc2ccccc2C1=O` yielded a solubility (kinetic) of 32.4 µg/mL (≈ 149 µM).
Next, `C=CCOc1ccc(/C=C2/C(=O)ON=C2C)cc1OC`: 26.2 µg/mL (≈ 95.9 µM); `Cc1ccc(C)c(NC(=S)Nc2cccnc2)c1`: more than 38.6 µg/mL; `CC(=O)N[C@@H](Cc1ccc(OC(F)(F)F)cc1)C(=O)O`: more than 43.7 µg/mL.
Next, `Cc1ccc(-c2nc(NCCCO)c3ccccc3n2)cc1`: 37.3 µg/mL (≈ 127 µM); `CC12C(=O)N(c3ccccc3)C(=O)C1C(c1ccccc1)N1CCCN12` (stereo not drawn): more than 52.1 µg/mL.
Next, `CS(=O)(=O)c1ccc(NS(=O)(=O)c2ccc(Cl)c(C(=O)NC3=NCCS3)c2)cc1`: 24 µg/mL (≈ 50.6 µM).
In turn, `CCCOC(=O)C1=C(C)N(C)C(=O)NC1c1cc2c(cc1[N+](=O)[O-])OCO2` (stereo not drawn) came in with a solubility (kinetic) of 49.4 µg/mL (≈ 131 µM).
Next, `CC(C)C(=O)NS(=O)(=O)c1ccc(NS(C)(=O)=O)cc1`: more than 48.1 µg/mL; `COc1cc([N+](=O)[O-])ccc1NC(=O)CSc1ccccn1`: 0.5 µg/mL (≈ 1.57 µM); `CC(C(=O)Nc1ccccc1)N(C)CCOc1ccccc1` (stereo not drawn): 43.7 µg/mL (≈ 146 µM).
Compound `COc1ccc(OC)c(/C=C2\SC(N3CCCC(C)C3)=NC2=O)c1` (stereo not drawn) returned a kinetic solubility of 22.1 µg/mL (≈ 63.8 µM).
In turn, `Cc1cccc2nc3ccccc3nc12` displayed a solubility (kinetic) of 0.7 µg/mL (≈ 3.6 µM).
Next, `O=C(Oc1ccccc1C(=O)N1CCOCC1)c1ccc(F)cc1`: 45.1 µg/mL (≈ 137 µM).
`CC1(C)C/C(=N\O)C(C(O)c2cccc([N+](=O)[O-])c2)C(C)(C)N1` (stereo not drawn) returned a kinetic solubility of 40.4 µg/mL (≈ 126 µM). This solubility kinetic and that of the compound before are within 1.5-fold of each other.
The same measure for `N/C(=N\OC(=O)c1ccccc1F)c1cccc([N+](=O)[O-])c1`: 2.1 µg/mL (≈ 6.93 µM).

These data come from PubChem BioAssay AID1996.
